Legend:
[1] = molecular target: T1, Sodium-dependent serotonin transporter (Homo sapiens, UniProt P31645); assay: Displacement of [3H]-citalopram from human serotonin transporter expressed in HEK 293 cells; type: cell-based, HEK293
Rattus norvegicus [2] = assay: Ex vivo D2 receptor occupancy in rat striatum assessed as inhibition [3H]-raclopride binding at 30 mg/kg, po; type: functional; design: scale not given: the % may be the effect or the level left
Mus musculus [3] = assay: Induction of catalepsy in mouse at 30 mg/kg, po; type: organism-based; design: dose 30 mg/kg, route oral; conditions: in vivo
[4] = molecular target: 5-hydroxytryptamine receptor 2A (Homo sapiens, UniProt P28223); assay: Binding affinity to human 5HT2A receptor
Sequence of 5-hydroxytryptamine receptor 2A (P28223 whole entry): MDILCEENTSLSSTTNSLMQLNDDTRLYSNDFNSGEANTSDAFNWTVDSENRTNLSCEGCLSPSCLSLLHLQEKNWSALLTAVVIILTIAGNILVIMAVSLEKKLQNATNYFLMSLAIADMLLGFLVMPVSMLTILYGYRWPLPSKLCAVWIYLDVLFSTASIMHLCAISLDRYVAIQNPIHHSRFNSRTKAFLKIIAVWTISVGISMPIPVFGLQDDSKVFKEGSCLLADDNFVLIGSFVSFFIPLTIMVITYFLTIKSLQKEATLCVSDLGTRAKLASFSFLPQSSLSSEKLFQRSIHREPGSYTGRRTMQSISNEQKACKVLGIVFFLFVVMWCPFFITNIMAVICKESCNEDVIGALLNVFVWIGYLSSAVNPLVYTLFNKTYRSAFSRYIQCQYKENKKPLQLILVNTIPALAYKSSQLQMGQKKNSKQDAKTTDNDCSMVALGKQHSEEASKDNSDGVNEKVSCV

Rattus norvegicus [5] = assay: Ex vivo D2 receptor occupancy in rat striatum assessed as inhibition [3H]-raclopride binding at 1 mg/kg, po; type: functional; design: scale not given: the % may be the effect or the level left
[6] = molecular target: T2, 5-hydroxytryptamine receptor 1A (Homo sapiens, UniProt P08908); assay: biochemical
T2 sequence (P08908 whole entry): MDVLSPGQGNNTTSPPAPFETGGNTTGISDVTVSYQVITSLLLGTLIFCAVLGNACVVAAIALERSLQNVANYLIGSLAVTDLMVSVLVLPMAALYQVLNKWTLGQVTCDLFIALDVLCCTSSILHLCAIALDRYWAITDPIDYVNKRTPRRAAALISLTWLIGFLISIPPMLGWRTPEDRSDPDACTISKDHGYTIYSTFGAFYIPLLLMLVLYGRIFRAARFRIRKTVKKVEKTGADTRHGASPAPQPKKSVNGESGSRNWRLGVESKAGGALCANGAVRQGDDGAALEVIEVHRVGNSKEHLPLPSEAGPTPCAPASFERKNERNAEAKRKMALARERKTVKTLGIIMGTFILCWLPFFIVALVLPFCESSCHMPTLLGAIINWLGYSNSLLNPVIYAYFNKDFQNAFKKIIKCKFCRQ
Description: Displacement of [3H]-8-OH-DPAT from human 5HT1A receptor expressed in HeLa cells

Mus musculus [7] = assay: Antipsychotic activity in po dosed mouse assessed as inhibition of spontaneous locomotor activity; type: functional; conditions: for minimal effective dose: read-out: MED
[8] = Ratio of drug level in brain to plasma in po dosed rat; type: ADME, organism-based; conditions: read-out: BPR
[9] = molecular target: Voltage-gated inwardly rectifying potassium channel KCNH2 (Homo sapiens, UniProt Q12809)
Sequence of Voltage-gated inwardly rectifying potassium channel KCNH2 (Q12809 whole entry): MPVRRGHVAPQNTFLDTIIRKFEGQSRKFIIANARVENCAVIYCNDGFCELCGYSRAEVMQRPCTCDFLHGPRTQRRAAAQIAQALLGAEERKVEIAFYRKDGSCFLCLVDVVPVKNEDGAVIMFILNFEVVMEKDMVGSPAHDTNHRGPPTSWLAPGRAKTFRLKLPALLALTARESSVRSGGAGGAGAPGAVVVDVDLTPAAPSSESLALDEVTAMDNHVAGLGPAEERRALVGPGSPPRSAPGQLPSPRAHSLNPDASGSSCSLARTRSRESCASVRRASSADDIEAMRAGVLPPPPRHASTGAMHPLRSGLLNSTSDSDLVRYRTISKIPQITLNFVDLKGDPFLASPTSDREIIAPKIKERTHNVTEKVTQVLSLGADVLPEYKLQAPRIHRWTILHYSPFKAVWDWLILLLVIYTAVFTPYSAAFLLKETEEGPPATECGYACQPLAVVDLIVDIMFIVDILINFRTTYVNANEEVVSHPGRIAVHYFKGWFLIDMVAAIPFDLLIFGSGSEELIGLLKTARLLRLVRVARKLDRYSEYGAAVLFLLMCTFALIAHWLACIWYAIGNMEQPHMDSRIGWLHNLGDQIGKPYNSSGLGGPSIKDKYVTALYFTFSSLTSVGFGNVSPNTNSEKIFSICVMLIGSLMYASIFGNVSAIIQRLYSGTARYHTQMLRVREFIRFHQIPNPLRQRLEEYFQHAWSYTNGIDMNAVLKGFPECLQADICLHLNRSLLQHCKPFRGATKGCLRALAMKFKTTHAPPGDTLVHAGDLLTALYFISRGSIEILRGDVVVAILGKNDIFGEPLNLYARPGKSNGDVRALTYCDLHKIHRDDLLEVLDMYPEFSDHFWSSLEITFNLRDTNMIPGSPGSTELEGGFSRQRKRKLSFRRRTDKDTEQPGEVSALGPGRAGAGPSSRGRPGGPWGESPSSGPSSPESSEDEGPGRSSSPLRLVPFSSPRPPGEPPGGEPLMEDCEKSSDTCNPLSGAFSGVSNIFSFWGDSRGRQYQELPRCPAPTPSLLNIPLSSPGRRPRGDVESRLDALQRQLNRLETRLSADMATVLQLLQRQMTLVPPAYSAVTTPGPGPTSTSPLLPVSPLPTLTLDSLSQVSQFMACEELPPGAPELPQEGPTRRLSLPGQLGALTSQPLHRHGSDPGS
Description: Displacement of [3H]dofetilide from human ERG

Rattus norvegicus [10] = assay: Ex vivo D2 receptor occupancy in po dosed rat striatum assessed as inhibition [3H]-raclopride binding at 82 ng/ml plasma concentration; type: functional; design: scale not given: the % may be the effect or the level left
Rattus norvegicus [11] = assay: Ex vivo D2 receptor occupancy in po dosed rat striatum assessed as inhibition [3H]-raclopride binding at 243 ng/ml plasma concentration; type: functional; design: scale not given: the % may be the effect or the level left
Mus musculus [12] = assay: Induction of catalepsy in mouse at 10 mg/kg, po; type: organism-based; design: dose 10 mg/kg, route oral; conditions: in vivo
Mus musculus [13] = assay: In vivo intrinsic activity at D2 receptor in mouse brain assessed as inhibition of gamma-butyrolactone-induced increase in DOPA synthesis at 30 mg/kg, po administered 60 mins before gamma-butyrolactone challenge measured after 30 mins; type: functional
[14] = molecular target: T2, 5-hydroxytryptamine receptor 1A; assay: Binding affinity to human 5HT1A receptor expressed in HeLa cells by scintillation proximity assay; type: cell-based
[15] = molecular target: T3, 5-hydroxytryptamine receptor 1A (Homo sapiens) (UniProt P08908); assay: Intrinsic activity at human […] 5HT1A receptor expressed in HeLa cells by [3H]-thymidine uptake assay; type: cell-based
T3 sequence (whole entry): T2 sequence (P08908 whole entry)

Rattus norvegicus [16] = assay: Ex vivo D2 receptor occupancy in po dosed rat striatum assessed as inhibition [3H]-raclopride binding at 47 ng/ml plasma concentration; type: functional; design: scale not given: the % may be the effect or the level left
[17] = molecular target: T1, Sodium-dependent serotonin transporter; assay: Displacement of [3H]-citalopram from human serotonin transporter expressed in HEK 293 cells by scintillation proximity assay; type: cell-based, HEK293
[18] = Apparent intrinsic clearance in human liver microsomes; type: ADME, Microsome
Rattus norvegicus [19] = assay: Ex vivo D2 receptor occupancy in po dosed rat striatum assessed as inhibition [3H]-raclopride binding at 188 ng/ml plasma concentration; type: functional; design: scale not given: the % may be the effect or the level left

T1 sequence (P31645 whole entry): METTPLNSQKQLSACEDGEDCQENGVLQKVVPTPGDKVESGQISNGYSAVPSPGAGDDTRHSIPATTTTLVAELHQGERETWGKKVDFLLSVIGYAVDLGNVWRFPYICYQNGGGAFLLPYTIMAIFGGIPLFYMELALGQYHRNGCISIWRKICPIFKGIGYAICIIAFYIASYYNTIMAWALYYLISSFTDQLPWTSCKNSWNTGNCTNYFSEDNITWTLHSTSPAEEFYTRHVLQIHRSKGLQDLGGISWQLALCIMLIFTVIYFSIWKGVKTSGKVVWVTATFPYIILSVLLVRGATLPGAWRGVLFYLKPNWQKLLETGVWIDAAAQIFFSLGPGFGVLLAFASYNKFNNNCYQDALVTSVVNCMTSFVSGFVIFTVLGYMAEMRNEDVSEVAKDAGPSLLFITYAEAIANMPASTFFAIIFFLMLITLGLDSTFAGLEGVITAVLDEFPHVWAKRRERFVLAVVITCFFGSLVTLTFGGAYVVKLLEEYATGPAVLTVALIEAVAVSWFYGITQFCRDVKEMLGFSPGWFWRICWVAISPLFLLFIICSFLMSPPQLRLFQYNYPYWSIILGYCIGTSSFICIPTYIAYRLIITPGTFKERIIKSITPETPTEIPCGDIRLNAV

In the case of `O=C1NCc2ccc(OCCCCN3CCN(c4cccc5cccc(F)c45)CC3)cc21`, the Ki [1] is reported as 26 nM, the Activity (Rattus norvegicus [2]) is reported as 99% and the Activity (Mus musculus [3]) is reported as “Non-toxic”. It also gave a Ki [4] of 1.83 nM, an Activity (Rattus norvegicus [5]) of 53% and a Ki [6] of 0.0504 nM. The Activity (Mus musculus [7]) was “Dose-dependent effect”, the minimal effective dose (Mus musculus [7]) was 1 mg/kg and the Kp [8] was 1.81. It also gave a Ki [9] of 2060 nM, an Activity (Rattus norvegicus [10]) of 78.5% and an Activity (Rattus norvegicus [11]) of 92.3%. The Activity (Mus musculus [12]) was “Non-toxic”, the Intrinsic activity (Mus musculus [13]) was 60% and the Ki [14] was 0.951 nM.
For `O=C1NCc2ccc(OCCCCN3CCN(c4cccc5ccccc45)CC3)cc21`, the Ki [1] was 16.5 nM, the Intrinsic activity [15] was 66.7% and the Ki [4] was 4.95 nM. The Activity (Rattus norvegicus [16]) was 80%, the Ki [17] was 445 nM and the Activity (Rattus norvegicus [5]) was 55%. For the same molecule, the Ki [6] was 0.151 nM, the Activity (Mus musculus [7]) was “Dose-dependent effect” and the minimal effective dose (Mus musculus [7]) was 1 mg/kg. It also gave a CLint scaled [18] of 23.7 mL/min/kg, a Kp [8] of 2.49 and a Ki [9] of 1850 nM. It also gave an Intrinsic activity (Mus musculus [13]) of 43%, an Activity (Rattus norvegicus [19]) of 94% and a Ki [14] of 2.22 nM.
